The target in data set [1] is hHSD1 (Homo sapiens, UniProt P28845). The data set is described as follows: Enzymatic assay, 11b-HSD1 reductase activity (conversion of cortisone into cortisol), recombinant protein. The data set is classed as biochemical. The following applies: 2 μM cortisone, 180 μM NADPH, pH 7.2, pIC50 scored, read-out: [C1] hHSD1 reductase Score. On the procedure:
The effects of compounds on 11b-HSD1 dependent conversion of cortisone into cortisol (reductase activity) was studied in a reaction mixture containing 30 mM Tris-HCl buffer pH 7.2, 180 μM NADPH, 1 mM EDTA, 2 μM cortisone, 1 μl drug and/or solvent and 11 μg recombinant protein in a final volume of 100 μl.
All incubations were performed for 45 min at 37 C in a water bath. The reaction was stopped by adding 100 μl acetonitrile containing 20 μg corticosterone as internal standard. After centrifugation, the product formation was analysed in the supernatant by HPLC on a Hypersyl BDS-C18 column using 0.05 mM ammonium acetate/methanol (50/50) as solvent. In all of the aforementioned assays, the drugs to be tested were taken from a stock solution and tested at a final concentration ranging from −10^−5M to 3·10^−9M. From the thus obtained dose response curves, the pIC50 value was calculated and scored as follows; Score 1=pIC50 value<5, Score 2=pIC50 value in the range of 5 to 6, Score 3=pIC50 value>6. (in this table NT stands for Not Tested).

Data set [2] concerns the target T1, 11b-HSD1 (Mus musculus, UniProt P50172).
T1 construct: endogenous in cells; host or cells: 3T3-L1 (ATCC-CL-173), differentiated into adipocytes
The data set is described as follows: Cellular assay, 11b-HSD1 activity in differentiated 3T3-L1 cells. The data set is classed as cell-based. The following applies: 4 hour pre-incubation, pIC50 scored, read-out: [C2] HSD1 cellular 3T3-L1 Score. The protocol: The effects on 11b-HSD1 activity was measured in differentiated 3T3-L1 cells and rat hepatocytes.
Mouse fibroblast 3T3-L1 cells (ATCC-CL-173) were seeded at a density of 16500 cells/ml in 12 well plates and grown for 7 days in DMEM medium (supplemented with 10% heat inactivated foetal calf serum, 2 mM glutamine and 25 mg gentamycin) at 37° C. in a humidified 5% CO2 atmosphere. Medium was refreshed twice a week. Fibroblasts were differentiated into adipocytes at 37° C. in a 5% CO2 humidified atmosphere in growth medium containing 2 μg/ml insulin, 55 μg/ml IBMX and 39.2 μg/ml dexamethasone.
Primary hepatocytes from male rats were seeded on normal Falcon 12 well plates at a density of 250000 cells/well and incubated for 16 hours at 37° C. in a 5% CO2 humidified atmosphere in DMEM-HAM's F12 medium containing 5% Nu-serum, 100 U/ml penicillin, 100 μg/ml streptomycin, 0.25 μg/ml amphotericin B, 50 μg/ml gentamycin sulfate, 5 μg/ml insulin and 392 ng/ml dexamethasone. Following a 4 hour pre-incubation with test compound, 0.5 μCi ^3H-cortisone or dehydrocorticosterone, was added to the 3T3-L1 cultures. One hour later, the medium was extracted on Extrelut^3-columns with 15 ml diethyl ether and the extract was analysed by HPLC as described above. The effects of JNJ-compounds on rat hepatocyte HSD1 activity was measured after an incubation period of 90 minutes with 0.5 μCi^3H-dehydrocorticosterone. Corticosterone formation was analysed by HPLC.
(§1) As for the enzymatic assays, the compounds to be tested were taken from a stock solution and tested at a final concentration ranging from −10^−5M to 3·10^−9M. From the thus obtained dose response curves, the pIC50 value was calculated and scored as follows; Score 1=pIC50 value<5, Score 2=pIC50 value in the range of 5 to 6, Score 3=pIC50 value>6. (in this table NT stands for Not Tested).

Data set [3] has as its target T2, 11b-HSD2 (Homo sapiens, UniProt P80365).
T2 construct: endogenous in cells; host or cells: HepG2 (ATCC HB-8065)
T2 sequence (P80365 1-405): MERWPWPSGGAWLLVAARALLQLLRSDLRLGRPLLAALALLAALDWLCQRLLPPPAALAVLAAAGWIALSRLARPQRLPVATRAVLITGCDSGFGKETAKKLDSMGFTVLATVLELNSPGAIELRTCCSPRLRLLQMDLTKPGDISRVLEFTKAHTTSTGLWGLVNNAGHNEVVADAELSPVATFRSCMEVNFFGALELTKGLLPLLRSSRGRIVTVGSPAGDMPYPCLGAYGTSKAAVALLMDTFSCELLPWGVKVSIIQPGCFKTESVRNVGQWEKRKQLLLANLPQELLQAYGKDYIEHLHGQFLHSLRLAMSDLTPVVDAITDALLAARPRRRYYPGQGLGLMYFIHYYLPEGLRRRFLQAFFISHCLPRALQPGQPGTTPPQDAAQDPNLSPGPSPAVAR
As to the kind of experiment: Cellular assay, 11b-HSD2 activity in HepG2 cells. The data set is classed as cell-based. The following applies: 4 hour pre-incubation, pIC50 scored, read-out: [C2] HSD2 cellular HepG2 Score. The protocol: The effects on 11b-HSD2 activity was studied in HepG2 and LCC-PK1-cells HepG2-cells (ATCC HB-8065) were seeded in 12 well plates at a density of 100,000 cells/ml and grown at 37° C. in a humidified 5% CO2 atmosphere in MEM-Rega-3 medium supplemented with 10% heat inactivated foetal calf serum, 2 mM L-glutamine and sodium bicarbonate). Medium was refreshed twice a week.
Following a 4 hour pre-incubation with test compound, 0.5 μCi ^3H-cortisol or corticosterone, was added to the cultures. One hour later, the medium was extracted on Extrelut^3-columns with 15 ml diethyl ether and the extract was analysed by HPLC as described above.
as §1

Experimental findings from US9150512B2, “Tricyclic lactam derivatives as 11-beta hydroxysteroid dehydrogenase inhibitors” (Janssen Pharmaceutica NV, priority 2004, dated 2015) are described below.

The structures appear in SMILES notation. pIC50: −log10 of the molar value.

T1 sequence (P50172 whole entry): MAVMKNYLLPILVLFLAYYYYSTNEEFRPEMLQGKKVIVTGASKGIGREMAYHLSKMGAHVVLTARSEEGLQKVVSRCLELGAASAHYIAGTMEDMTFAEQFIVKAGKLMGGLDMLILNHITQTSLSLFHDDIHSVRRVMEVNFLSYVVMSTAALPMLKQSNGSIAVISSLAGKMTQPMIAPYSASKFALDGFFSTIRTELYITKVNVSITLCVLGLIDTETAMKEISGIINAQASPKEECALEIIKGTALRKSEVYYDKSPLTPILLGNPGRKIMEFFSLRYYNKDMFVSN
hHSD1, sequence (P28845 whole entry): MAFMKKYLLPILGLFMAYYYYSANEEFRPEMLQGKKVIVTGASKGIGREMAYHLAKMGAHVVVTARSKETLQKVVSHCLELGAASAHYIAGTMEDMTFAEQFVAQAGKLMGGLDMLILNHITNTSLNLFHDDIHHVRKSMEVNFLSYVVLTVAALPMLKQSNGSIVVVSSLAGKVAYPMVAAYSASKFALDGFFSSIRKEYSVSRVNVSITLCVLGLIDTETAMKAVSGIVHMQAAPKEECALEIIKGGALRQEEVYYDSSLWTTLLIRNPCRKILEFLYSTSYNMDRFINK

Regarding `O=C1N2CCc3ccccc3C2CN1[C@H]1[C@@H]2CC3C[C@H]1C[C@](O)(C3)C2` (stereo partly shown) [Compound 24], the melting point lay within 235 to 237 °C. Moreover, the pIC50 in data set [1] is more than 6.00. Besides, the pIC50 in data set [2] is more than 6.00. Also, the pIC50 in data set [3] is more than 6.00.
As to `O=C1N2CCc3ccccc3C2CN1[C@@H]1[C@@H]2CC3C[C@H]1C[C@](O)(C3)C2` (stereo partly shown) [Compound 25], the melting point is 210 to 212 °C. Further, the pIC50 in data set [1] was 5.00 to 6.00. Also, in data set [2], the pIC50 was more than 6.00.
